Results reported in ChEMBL document CHEMBL1153555, “Molecular mechanism of target recognition by subtilin, a class I lanthionine antibiotic” (Antimicrob Agents Chemother, 2008).
In brackets after ≈: the same amount, converted by molar mass.

Experiments:
Lactococcus lactis = experiment: Antibacterial activity against Lactococcus lactis MG1614 by disk diffusion assay; type: functional
[1] = Permeability across Micrococcus luteus ATCC 4698 lipid II-containing unilamellar vesicle of 1,2-dioleoyl-sn-gltcero-3-phosphocholine and 1,2-dioleoyl-sn-glycero-3-phosphoglycerol assessed as partial leakage after disintegration of vesicles at lower concentration by carboxyfluorescein leakage assay; type: ADME

| MIC (Lactococcus lactis) [µg/mL] | permeability [1] [%] | Compound |
| --- | --- | --- |
| > 50 |  | C=C1NC(=O)[C@H](CCC(=O)O)NC(=O)[C@H](NC(=O)[C@@H](N)CCCCN)CSC[C@@H](C(=O)N[C@H]2C(=O)N3CCC[C@H]3C(=O)NCC(=O)N[C@H](C(=O)N[C@H](C(=O)N[C@H]3C(=O)NCC(=O)N[C@@H](C)C(=O)N[C@@H](CC(C)C)C(=O)N[C@@H](CCC(N)=O)C(=O)N/C(=C\C)C(=O)N[C@H](C(=O)N[C@@H](Cc4ccccc4)C(=O)N[C@@H](CC(C)C)C(=O)N[C@@H](CCC(N)=O)C(=O)N[C@H]4C(=O)N[C@@H](CC(C)C)C(=O)N[C@H]5C(=O)N[C@@H](CS[C@H]4C)C(=O)N[C@@H](CC(N)=O)C(=O)N[C@H](C(=O)N[C@@H](CCCCN)C(=O)O)CS[C@H]5C)CS[C@H]3C)C(C)C)CS[C@H]2C)NC(=O)[C@H](CC(C)C)NC1=O |
| 11.5 (≈ 3.82 µM) |  | C=C1NC(=O)CC[C@@H](C(=O)O)NC(=O)[C@H](NC(=O)[C@H](CCCCN)NC(=O)[C@@H](N)Cc2c[nH]c3ccccc23)CSC[C@@H](C(=O)N[C@@H]2C(=O)N3CCC[C@H]3C(=O)NCC(=O)N[C@H](C(=O)N[C@H](C(=O)N[C@@H]3C(=O)NCC(=O)N[C@@H](C)C(=O)N[C@@H](CC(C)C)C(=O)N[C@@H](CCC(N)=O)C(=O)N/C(=C/C)C(=O)N[C@H](C(=O)N[C@@H](Cc4ccccc4)C(=O)N[C@@H](CC(C)C)C(=O)N[C@@H](CCC(N)=O)C(=O)N[C@@H]4C(=O)N[C@@H](CC(C)C)C(=O)N[C@H]5C(=O)N[C@@H](CSC4C)C(=O)NC(=O)[C@H](CC(N)=O)N[C@H](C(=O)N[C@@H](CCCCN)C(=O)O)CSC5C)CSC3C)C(C)C)CSC2C)N[C@@H](CC(C)C)C(=O)NC1=O (stereo not given in full) |
| 19.2 (≈ 5.6 µM) |  | C=C(NC(=O)[C@@H](NC(=O)[C@H](CCCCN)NC(=O)[C@@H]1CS[C@@H](C)[C@H]2NC(=O)[C@H](CC(C)C)NC(=O)[C@H](NC(=O)[C@H](CCC(N)=O)NC(=O)[C@H](CC(C)C)NC(=O)[C@H](Cc3ccccc3)NC(=O)[C@@H]3CS[C@@H](C)[C@@H](NC(=O)[C@@H](NC(=O)[C@@H]4CS[C@@H](C)[C@@H](NC(=O)[C@@H]5CSC[C@@H](NC(=O)[C@H](CCCCN)NC(=O)[C@H](Cc6c[nH]c7ccccc67)NC(=O)CCC(=O)O)C(=O)N[C@@H](CCC(=O)O)C(=O)NC(=C)C(=O)N[C@@H](CC(C)C)C(=O)N5)C(=O)N5CCC[C@H]5C(=O)NCC(=O)N4)C(C)C)C(=O)NCC(=O)N[C@@H](C)C(=O)N[C@@H](CC(C)C)C(=O)N[C@@H](CCC(N)=O)C(=O)N/C(=C\C)C(=O)N3)[C@H](C)SC[C@H](NC2=O)C(=O)N[C@@H](CC(N)=O)C(=O)N1)[C@@H](C)CC)C(=O)N[C@@H](CCCCN)C(=O)O |
|  | 20 | C=C(NC(=O)[C@@H](NC(=O)[C@H](CCCCN)NC(=O)[C@@H]1CS[C@@H](C)[C@H]2NC(=O)[C@H](CC(C)C)NC(=O)[C@H](NC(=O)[C@H](CCC(N)=O)NC(=O)[C@H](CC(C)C)NC(=O)[C@H](Cc3ccccc3)NC(=O)[C@@H]3CS[C@@H](C)[C@@H](NC(=O)[C@@H](NC(=O)[C@@H]4CS[C@@H](C)[C@@H](NC(=O)[C@@H]5CSC[C@@H](NC(=O)[C@H](CCCCN)NC(=O)[C@@H](N)Cc6c[nH]c7ccccc67)C(=O)N[C@@H](CCC(=O)O)C(=O)NC(=C)C(=O)N[C@@H](CC(C)C)C(=O)N5)C(=O)N5CCC[C@H]5C(=O)NCC(=O)N4)C(C)C)C(=O)NCC(=O)N[C@@H](C)C(=O)N[C@@H](CC(C)C)C(=O)N[C@@H](CCC(N)=O)C(=O)N/C(=C\C)C(=O)N3)[C@H](C)SC[C@H](NC2=O)C(=O)N[C@@H](CC(N)=O)C(=O)N1)[C@@H](C)CC)C(=O)N[C@@H](CCCCN)C(=O)O [SUBTILIN] |
| 1.13 (≈ 0.34 µM) |  | C=C1NC(=O)CC[C@@H](C(=O)O)NC(=O)[C@H](NC(=O)[C@H](CCCCN)NC(=O)[C@@H](N)Cc2c[nH]c3ccccc23)CSC[C@@H](C(=O)N[C@@H]2C(=O)N3CCC[C@H]3C(=O)NCC(=O)N[C@H](C(=O)N[C@H](C(=O)N[C@@H]3C(=O)NCC(=O)N[C@@H](C)C(=O)N[C@@H](CC(C)C)C(=O)N[C@@H](CCC(N)=O)C(=O)N/C(=C/C)C(=O)N[C@H](C(=O)N[C@@H](Cc4ccccc4)C(=O)N[C@@H](CC(C)C)C(=O)N[C@@H](CCC(N)=O)C(=O)N[C@@H]4C(=O)N[C@@H](CC(C)C)C(=O)N[C@H]5C(=O)N[C@@H](CSC4C)C(=O)NC(=O)[C@H](CC(N)=O)N[C@H](C(=O)N[C@@H](CCCCN)C(=O)N[C@H](C(=O)NC(=C)C(=O)N[C@@H](CCCCN)C(=O)O)[C@@H](C)CC)CSC5C)CSC3C)C(C)C)CSC2C)N[C@@H](CC(C)C)C(=O)NC1=O (stereo not given in full) [SUBTILIN] |
